From patent US12338256B2, “Aza-tetracyclic oxazepine compounds and uses thereof” (Genentech, Inc., priority 2022, dated 2025) come the findings set out here.

Structures are written as SMILES.

The test system of test [1] is H1975 (KRAS wild type human lung adenocarcinoma cell line). The experiment in a line: KRAS 3D-Cell Proliferation Assay, H1975 (Example 503). To be noted: Homo sapiens, NCI-H1975, 168 h, H1975 3D culture, 7 days, CellTiter-Glo 3D; read-out: Prolif H1975 3D ATP IC50. The test is classed as cell-based. Summed up:
(§1)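 IC50s come from a 4-parameter Hill fit of luminescence (CellTiter-Glo 3D) normalized between DMSO (0%) and 1 μM staurosporine (100%). Cells in low-attachment 3D culture, RPMI-1640 with 10% FBS, received serial compound dilutions (0.3% DMSO) after overnight and were incubated 7 days at 37 °C.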
In general terms: ATP-based viability assays read luminescence as a measure of living cells.

Test [2] deals with HPAC (homozygous mutant KRAS G12D human pancreatic cell line). The test can be described thus: KRAS 3D-Cell Proliferation Assay, HPAC (Example 503). In kind it is cell-based. Particulars: Homo sapiens, HPAC, 168 h, HPAC 3D culture, 7 days, CellTiter-Glo 3D; read-out: Prolif HPAC 3D ATP IC50. The procedure, abridged: as §1

Regarding `C[C@@H]1Oc2nc(-c3c(F)ccc4cc[nH]c(=O)c34)c(F)c3nc(OC[C@@]45CCCN4C[C@H](F)C5)nc(c23)N2C[C@H]3CC[C@H](N3)[C@@H]12` [Compound 196, 7-Fluoro-8-((5S,5aS,6S,9R)-1-fluoro-12-(((2R,7aS)-2-fluorotetrahydro-1H-pyrrolizin-7a(5H)-yl)methoxy)-5-methyl-5a,6,7,8,9,10-hexahydro-5H-4-oxa-3,10a,11,13,14-pentaaza-6,9-methanonaphtho[1,8-ab]heptalen-2-yl)isoquinolin-1(2H)-one], the IC50 in test [1] and in test [2] was 20000 nM throughout.
For the molecule `Cc1nc(N)c(Cl)c(-c2nc3c4c(nc(OC[C@@]56CCCN5C[C@H](F)C6)nc4c2F)N2C[C@H]4CC[C@H](N4)[C@H]2[C@H](C)O3)c1C(F)(F)F` [Compound 197, 3-Chloro-4-((5S,5aS,6S,9R)-1-fluoro-12-(((2R,7aS)-2-fluorotetrahydro-1H-pyrrolizin-7a(5H)-yl)methoxy)-5-methyl-5a,6,7,8,9,10-hexahydro-5H-4-oxa-3,10a,11,13,14-pentaaza-6,9-methanonaphtho[1,8-ab]heptalen-2-yl)-6-methyl-5-(trifluoromethyl)pyridin-2-amine], the results for the 50% inhibitory concentration (IC50) in test [1] and in test [2] were 468 nM and 9.79 nM, respectively.
For the molecule `Cc1nc(N)c(C)c(-c2nc3c4c(nc(OC[C@@]56CCCN5C[C@H](F)C6)nc4c2F)N2C[C@H]4CC[C@H](N4)[C@H]2[C@H](C)O3)c1C(F)(F)F` [Compound 198, 4-((5S,5aS,6S,9R)-1-Fluoro-12-(((2R,7aS)-2-fluorotetrahydro-1H-pyrrolizin-7a(5H)-yl)methoxy)-5-methyl-5a,6,7,8,9,10-hexahydro-5H-4-oxa-3,10a,11,13,14-pentaaza-6,9-methanonaphtho[1,8-ab]heptalen-2-yl)-3,6-dimethyl-5-(trifluoromethyl)pyridin-2-amine], the concentration for half-maximal inhibition (IC50) in test [1] is 3720 nM; in test [2], 13 nM.
Take `C[C@@H]1Oc2nc(-c3cc(N)cc4c3CC4)c(F)c3nc(OC[C@@]45CCCN4C[C@H](F)C5)nc(c23)N2C[C@H]3CC[C@H](N3)[C@@H]12` [Compound 201, 5-((5S,5aS,6S,9R)-1-Fluoro-12-(((2R,7aS)-2-fluorotetrahydro-1H-pyrrolizin-7a(5H)-yl)methoxy)-5-methyl-5a,6,7,8,9,10-hexahydro-5H-4-oxa-3,10a,11,13,14-pentaaza-6,9-methanonaphtho[1,8-ab]heptalen-2-yl)bicyclo[4.2.0]octa-1(6),2,4-trien-3-amine]: the IC50 amounted to 10600 nM in test [1] and 407 nM in test [2].
Take `Cc1c(F)c(O)cc(-c2nc3c4c(nc(OC[C@@]56CCCN5C[C@H](F)C6)nc4c2F)N2C[C@H]4CC[C@H](N4)[C@H]2[C@H](C)O3)c1C(F)(F)F` [Compound 202, 2-Fluoro-5-((5S,5aS,6S,9R)-1-fluoro-12-(((2R,7aS)-2-fluorotetrahydro-1H-pyrrolizin-7a(5H)-yl)methoxy)-5-methyl-5a,6,7,8,9,10-hexahydro-5H-4-oxa-3,10a,11,13,14-pentaaza-6,9-methanonaphtho[1,8-ab]heptalen-2-yl)-3-methyl-4-(trifluoromethyl)phenol]: the half-maximal inhibitory concentration (IC50) in test [1] was 20000 nM; in test [2] it was 2000 nM.
On to `Cc1c(F)ccc(-c2nc3c4c(nc(OC[C@@]56CCCN5C[C@H](F)C6)nc4c2F)N2C[C@H]4CC[C@H](N4)[C@H]2[C@H](C)O3)c1C(F)(F)F` [Compound 203, (5S,5aS,6S,9R)-1-fluoro-2-(4-fluoro-3-methyl-2-(trifluoromethyl)phenyl)-12-(((2R,7aS)-2-fluorotetrahydro-1H-pyrrolizin-7a(5H)-yl)methoxy)-5-methyl-5a,6,7,8,9,10-hexahydro-5H-4-oxa-3,10a,11,13,14-pentaaza-6,9-methanonaphtho[1,8-ab]heptalene], for which the IC50 in test [1] came out at 20000 nM; in test [2], 520 nM.
In the case of `Cc1c(F)c(N)c(F)c(-c2nc3c4c(nc(OC[C@@]56CCCN5C[C@H](F)C6)nc4c2F)N2C[C@H]4CC[C@H](N4)[C@H]2[C@H](C)O3)c1I` [Compound 204, 2,6-Difluoro-3-((5S,5aS,6S,9R)-1-fluoro-12-(((2R,7aS)-2-fluorotetrahydro-1H-pyrrolizin-7a(5H)-yl)methoxy)-5-methyl-5a,6,7,8,9,10-hexahydro-5H-4-oxa-3,10a,11,13,14-pentaaza-6,9-methanonaphtho[1,8-ab]heptalen-2-yl)-4-iodo-5-methylaniline], the IC50 in test [1] was found to be 1420 nM; in test [2], 18.9 nM.
For `Cc1nc(N)cc(-c2nc3c4c(nc(OCC5(CN6CC7COCC7C6)CC5)nc4c2F)N2C[C@H]4CC[C@H](N4)[C@H]2[C@H](C)O3)c1C(F)(F)F` (stereo partly drawn) [Compound 205, 4-((5S,5aS,6S,9R)-1-Fluoro-5-methyl-12-((1-((tetrahydro-1H-furo[3,4-c]pyrrol-5(3H)-yl)methyl)cyclopropyl)methoxy)-5a,6,7,8,9,10-hexahydro-5H-4-oxa-3,10a,11,13,14-pentaaza-6,9-methanonaphtho[1,8-ab]heptalen-2-yl)-6-methyl-5-(trifluoromethyl)pyridin-2-amine], in that order: 1130 nM and 3.35 nM.
With `Cc1nc(N)cc(-c2nc3c4c(nc(OCC5(CN6CC7CCC(C6)O7)CC5)nc4c2F)N2C[C@H]4CC[C@H](N4)[C@H]2[C@H](C)O3)c1C(F)(F)F` [Compound 207, 4-((5S,5aS,6S,9R)-12-((1-((8-oxa-3-azabicyclo[3.2.1]octan-3-yl)methyl)cyclopropyl)methoxy)-1-fluoro-5-methyl-5a,6,7,8,9,10-hexahydro-5H-4-oxa-3,10a,11,13,14-pentaaza-6,9-methanonaphtho[1,8-ab]heptalene-2-yl)-6-methyl-5-(trifluoromethyl)pyridin-2-amine], the IC50 in test [1] came out at 1420 nM; in test [2] it was 2.36 nM.
`Cc1nc(N)cc(-c2nc3c4c(nc(OCC5(CN6C[C@@H]7C[C@H]6CO7)CC5)nc4c2F)N2C[C@H]4CC[C@H](N4)[C@H]2[C@H](C)O3)c1C(F)(F)F` [Compound 208, 4-((5S,5aS,6S,9R)-12-((1-(((1S,4S)-2-Oxa-5-azabicyclo[2.2.1]heptan-5-yl)methyl)cyclopropyl)methoxy)-1-fluoro-5-methyl-5a,6,7,8,9,10-hexahydro-5H-4-oxa-3,10a,11,13,14-pentaaza-6,9-methanonaphtho[1,8-ab]heptalene-2-yl)-6-methyl-5-(trifluoromethyl)pyridin-2-amine]: the IC50 in test [1] came to 3630 nM; in test [2], 4.89 nM.
In the same order, the values of `Cc1nc(N)cc(-c2nc3c4c(nc(OCC5(CN6C[C@H]7C[C@@H]6CO7)CC5)nc4c2F)N2C[C@H]4CC[C@H](N4)[C@H]2[C@H](C)O3)c1C(F)(F)F` [Compound 209, 4-((5S,5aS,6S,9R)-12-((1-(((1R,4R)-2-Oxa-5-azabicyclo[2.2.1]heptan-5-yl)methyl)cyclopropyl)methoxy)-1-fluoro-5-methyl-5a,6,7,8,9,10-hexahydro-5H-4-oxa-3,10a,11,13,14-pentaaza-6,9-methanonaphtho[1,8-ab]heptalene-2-yl)-6-methyl-5-(trifluoromethyl)pyridin-2-amine] are 282 nM and 3.47 nM.
Regarding `Cc1nc(N)cc(-c2nc3c4c(nc(OCC5(CN6CC7CCC6CO7)CC5)nc4c2F)N2C[C@H]4CC[C@H](N4)[C@H]2[C@H](C)O3)c1C(F)(F)F` [Compound 211, 4-((5S,5aS,6S,9R)-12-((1-((2-Oxa-5-azabicyclo[2.2.2]octan-5-yl)methyl)cyclopropyl)methoxy)-1-fluoro-5-methyl-5°,6,7,8,9,10-hexahydro-5H-4-oxa-3,10°,11,13,14-pentaaza-6,9-methanonaphtho[1,8-ab]heptalen-2-yl)-6-methyl-5-(trifluoromethyl)pyridin-2-amine], the IC50 in test [1] was found to be 1150 nM; in test [2], 1.45 nM.
`Cc1nc(N)cc(-c2nc3c4c(nc(OCC5(CN6CCOC7(CC7)C6)CC5)nc4c2F)N2C[C@H]4CC[C@H](N4)[C@H]2[C@H](C)O3)c1C(F)(F)F` [Compound 212, 4-((5S,5aS,6S,9R)-12-((1-((4-Oxa-7-azaspiro[2.5]octan-7-yl)methyl)cyclopropyl)methoxy)-1-fluoro-5-methyl-5a,6,7,8,9,10-hexahydro-5H-4-oxa-3,10a,11,13,14-pentaaza[6,9]methanonaphtho[1,8-ab]heptalene-2-yl)-6-methyl-5-(trifluoromethyl)pyridin-2-amine]: the results for the 50% inhibitory concentration (IC50) in test [1] and in test [2] were 389 nM and 1.64 nM, respectively.
With `Cc1nc(N)cc(-c2nc3c4c(nc(OCC5(CN6CCO[C@H](C)C6)CC5)nc4c2F)N2C[C@H]4CC[C@H](N4)[C@H]2[C@H](C)O3)c1C(F)(F)F` [Compound 213, 4-((5S,5aS,6S,9R)-1-Fluoro-5-methyl-12-((1-(((R)-2-methylmorpholino)methyl)cyclopropyl)methoxy)-5a,6,7,8,9,10-hexahydro-5H-4-oxa-3,10a,11,13,14-pentaaza-6,9-methanonaphtho[1,8-ab]heptalen-2-yl)-6-methyl-5-(trifluoromethyl)pyridin-2-amine], the IC50 in test [1] came to 295 nM; in test [2] it was 1.25 nM.
Consider `Cc1nc(N)cc(-c2nc3c4c(nc(OC[C@]56CCCN5CC(F)(F)C6)nc4c2F)N2C[C@H]4CC[C@H](N4)[C@H]2[C@H](C)O3)c1C(F)(F)F` [Compound 217, 4-((5S,5aS,6S,9R)-12-(((R)-2,2-difluorotetrahydro-1H-pyrrolizin-7a(5H)-yl)methoxy)-1-fluoro-5-methyl-5a,6,7,8,9,10-hexahydro-5H-4-oxa-3,10a,11,13,14-pentaaza-6,9-methanonaphtho[1,8-ab]heptalen-2-yl)-6-methyl-5-(trifluoromethyl)pyridin-2-amine], for which the results for the IC50 in test [1] and in test [2] were 12600 nM and 38.8 nM, respectively.

Usually IC50 stands for the concentration that inhibits the measured activity by half.
